Results on six compounds are retold here after US20220332799A1, “HERV INHIBITORS FOR USE IN TREATING TAUOPATHIES” (Deutsches Zentrum Für Neurodegenerative Erkrankungen E.V. …, priority 2019, published 2022).

For one assay, the system named is MuERV env and gag mRNA. Description: qRT-PCR of MuERV env and gag transcripts in donor clone s2E. It is filed as cell-based, mouse. The following applies: for expression of total env and gag mRNA: s2E P1 donors, Aza 200 nM or Dec 100 nM, then 5 days without drug, vs DMSO; for total env and gag mRNA: s2E P21 donors, L-methionine 80 mM, Betaine 80 mM, Choline chloride 20 mM, 6 days, vs medium control. Here is the method:
To inhibit methyltransferases, s2E P1 donor cells were treated for three days with methyltransferase inhibitors 5-Azacytidine (Aza) 200 nM, Decitabine (Dec) 100 nM or DMSO as solvent control. Subsequently, the cells were cultured in the absence of the drugs for 5 days. Pre-treated donor cells were subsequently cocultured with recipient cells as described above to monitor aggregate induction efficiency in recipient N2a NM-GFP^sol cells. Cell lysates of donor cells were also analyzed for MuERV Env and Gag expression levels by western blot. To increase DNA methylation, the s2E donor clone (P21) was treated with methyl group donors L-methionine (L-M) 80 mM, Betaine (B) 80 mM, Choline chloride (CC) 20 mM or medium control for 6 days. MuERV Env and Gag protein levels were analyzed by western blot. Subsequently, cells were cocultured with recipient cells for 16 h. The percentage of aggregate containing recipient cells was compared to the percentage of aggregate bearing recipients cocultured with solvent-treated donors. […]
Total RNA from cell pellets or brain samples was isolated using the RNeasy Mini Kit or RNeasy Lipid Tissue Mini Kit (Qiagen). RNA concentration and quality were determined using the Agilent 2100 Bioanalyzer System. For a 20 μl reaction, 1 μg RNAs were reversely transcribed to cDNA using the iScript™ cDNA Synthesis Kit (Bio-Rad). For a 20 μl qRT-PCR reaction, 2 μl of synthesized cDNA was used as template. For qRT-PCR of murine env AA037244.2 and gag AID54952, custom designed TaqMan probes were used (Thermo Fisher Scientific). Pre-designed TaqMan probes by the company for murine pan-env, xpr1, mcat-1 and gapdh as housekeeping control and TaqMan™ Gene Expression Master Mix (Thermo Fisher Scientific) were used. qRT-PCR using TaqMan probes was performed as described in the manufacturer's instruction. For qRT-PCR analyses of HERV family members, primers were designed using the corresponding cDNA sequences (cf. SEQ ID NOs. 73-92). PowerUP SYBR™ Green Master Mix (Thermo Fisher Scientific) was mixed with different cDNAs and corresponding primers as indicated in the instruction. The fast cycling mode was used for all primers.
(In general: Real-time PCR tracks product formation cycle by cycle.)

The subject of another assay is N2a NM-GFP^sol cells. The class given is cell-based, mouse. The following applies: for percentage of recipient cells with NM-GFP aggregates: compounds added to cocultures 1 h after co-seeding, three concentrations, 12 h.
The next assay deals with MuERV Env and Gag. It is filed as cell-based, mouse. Here is the method: To inhibit methyltransferases, s2E P1 donor cells were treated for three days with methyltransferase inhibitors 5-Azacytidine (Aza) 200 nM, Decitabine (Dec) 100 nM or DMSO as solvent control. Subsequently, the cells were cultured in the absence of the drugs for 5 days. Pre-treated donor cells were subsequently cocultured with recipient cells as described above to monitor aggregate induction efficiency in recipient N2a NM-GFP^sol cells. Cell lysates of donor cells were also analyzed for MuERV Env and Gag expression levels by western blot. To increase DNA methylation, the s2E donor clone (P21) was treated with methyl group donors L-methionine (L-M) 80 mM, Betaine (B) 80 mM, Choline chloride (CC) 20 mM or medium control for 6 days. MuERV Env and Gag protein levels were analyzed by western blot. Subsequently, cells were cocultured with recipient cells for 16 h. The percentage of aggregate containing recipient cells was compared to the percentage of aggregate bearing recipients cocultured with solvent-treated donors.
Pre-designed siRNAs against murine XPR1 and mCat-1 genes were used to knock-down genes coding for putative receptors. For transfection, 2-4×10^5 cells/well were seeded on 6 well plates. The next day, 30 nM siRNA or plasmid DNA was transfected using Lipofectamine RNAiMAX or Lipofectamine2000 transfection reagent, respectively, according to the manufacturer's instructions (Thermo Fisher Scientific). After 2 days, transfected cells were harvested for aggregate induction assays and qRT-PCR, western blot analysis.
For Western blot analysis, protein concentrations were measured using the Quick Start™ Bradford Protein assay (Bio-Rad). Proteins were separated on NuPAGE®Novex® 4-12 Bis-Tris Protein Gels (Life Technologies) followed by transfer onto a PVDF membrane (GE Healthcare). Western blot analysis was performed using rat hybridoma anti-MuERV Env mAb83A25; anti-xenotropic MuLV virus antibody ABIN457298 for detecting both Env and Gag (antibodies-online); mouse anti-MuERV Gag ab100970 (Abcam); mouse anti-Alix (1:1000; BD Bioscience); rat anti-HA 3F10 (1:1000; Roche); mouse anti-GAPDH 6C5 (1:5000; Abcam); mouse anti-Hsc/Hsp70 N27F3-4 (1:1000; ENZO); mouse anti-VSV-G A5977 (Sigma); rabbit anti-Tau ab64193 (Abcam); mouse anti-HERV K Env HERM-1811-5 (Amsbio); mouse anti-HERV K Gag HERM-1841-5 (Amsbio). The membrane was incubated with Pierce™ ECL Western Blotting Substrate (Thermo Fisher Scientific) according to the manufacturer's recommendations.

Assay [1] relates to HEK Tau-FRsol cells. Description: Tau-FR aggregate induction by coculture with A375 Tau-GFPAD donor cells. The following applies: donors 10 μM for 3 d; coculture 3 d in presence of 10 μM; vs DMSO. The class given is cell-based, human. Here is the method: (§1) Melanoma cell line A375 (Oricchio E, Sciamanna I, Beraldi R, Tolstonog G V, Schumann G G, Spadafora C. 2007. Distinct roles for LINE-1 and HERV-K retroelements in cell proliferation, differentiation and tumor progression. Oncogene 26:4226-4233) was engineered to stably express Tau-GFP and subsequently exposed to AD brain homogenate to induce Tau aggregation. A clone stably propagating Tau-GFPagg was isolated and used for experiments. Donor A375 Tau-GFPAD cells were treated with 10 μM inhibitor Lopinavir to repress HERV-K protease for 3 d before EV were harvested. Donors or donor EV were then cultured with recipient HEK Tau-FRsol cells in the presence of 10 μM Lopinavir or DMSO for 3 d. • b. Quantitative analysis of recipient cells with Tau-FRagg upon coculture with donors. Statistical analysis was performed with unpaired Student's t-test (n=6). • c. Quantitative analysis of recipient cells with induced Tau-FRagg following exposure to donor-derived EV. Statistical analysis was performed with unpaired Student's t-test (n=3). […]
(§2) To inhibit methyltransferase, MCF-7 Tau-GFPAD cells were treated with 2 μM Aza or DMSO for 4 d. […] Afterwards, the total numbers of viable cells and the viability upon drug treatments were determined using the Vi-VELLTMXR Cell Viability Analyzer (Beckman Coulter). […]

The subject of assay [2] is HEK Tau-FRsol cells. Description: Tau-FR aggregate induction by EV from A375 Tau-GFPAD donor cells. It is filed as cell-based, human. As to conditions: EV from donors treated with 10 μM for 3 d; 3 d on recipients in presence of 10 μM; vs DMSO. Here is the method:
as §1, §2

In the next assay the target is T1, HERV-K protease (Homo sapiens, UniProt P10265).
T1 sequence (P10265 1-156): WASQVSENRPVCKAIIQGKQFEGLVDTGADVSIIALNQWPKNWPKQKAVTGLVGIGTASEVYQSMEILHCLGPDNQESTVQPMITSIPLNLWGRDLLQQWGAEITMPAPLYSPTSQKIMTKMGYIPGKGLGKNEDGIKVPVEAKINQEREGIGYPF
The following applies: stated as shown previously; cited from earlier work.

“Also recorded” adds a separate entry of the source. Read-outs that look alike come from different tables or passages of the source.

Consider `Nc1ncn([C@@H]2O[C@H](CO)[C@@H](O)[C@H]2O)c(=O)n1` [5-Azacytidine], for which the “expression of total env and gag mRNA” value with MuERV env and gag mRNA is “increased expression of total env and gag mRNA”; in the assay on MuERV env and gag mRNA (listed as 5-azacytidine), “Increased expression of MuERV env (f), gag (h) and pan-env (g) transcripts”. Moreover, the “NM aggregate induction in recipient cells cocultured with pretreated donors” value in the assay on N2a NM-GFP^sol cells (s2E P1 donors pretreated, Aza 200 nM or Dec 100 nM, vs DMSO) is listed as “significantly increased NM aggregate induction in recipient cells”. In the assay on MuERV Env and Gag (s2E P1 donors, Aza 200 nM or Dec 100 nM, then 5 days without drug, vs DMSO), the “expression of MuERV proteins” value is listed as “increased expression”.

Turning to `C[N+](C)(C)CC(=O)O` [Betaine], the “total env and gag mRNA” value was “transcripts decreased” in the assay on MuERV env and gag mRNA; “decreased total env and gag mRNA” in the assay on MuERV env and gag mRNA (listed as betaine). Moreover, the “NM-GFP aggregate induction when pretreated donors were cocultured with recipient cells” value (shortened to “NM-GFP aggregate induction”) in the assay on N2a NM-GFP^sol cells (s2E P21 donors pretreated 6 days, coculture 16 h) is “decreased NM-GFP aggregate induction”. In addition, the MuERV proteins entry in the assay on MuERV Env and Gag (s2E P21 donors, L-methionine 80 mM, Betaine 80 mM, Choline chloride 20 mM, 6 days, vs medium control) is “decreased”.

With `C[N+](C)(C)CCO.[Cl-]` [Choline chloride], the “total env and gag mRNA” value in the assay on MuERV env and gag mRNA is “transcripts decreased”; in the assay with MuERV env and gag mRNA (listed as choline chloride), “decreased total env and gag mRNA”. In the assay with N2a NM-GFP^sol cells, the “NM-GFP aggregate induction” value is “decreased NM-GFP aggregate induction”. Further, the MuERV proteins result in the assay with MuERV Env and Gag is reported as “decreased”.

Take `CSCC[C@H](N)C(=O)O` [L-methionine]: the “total env and gag mRNA” value with MuERV env and gag mRNA is “transcripts decreased”; with MuERV env and gag mRNA (listed as 1-methionine), “decreased total env and gag mRNA”. Further, the “NM-GFP aggregate induction” value in the assay on N2a NM-GFP^sol cells is recorded as “decreased NM-GFP aggregate induction”. In the assay with MuERV Env and Gag, the MuERV proteins entry is reported as “decreased”.

In the case of `Cc1cccc(C)c1OCC(=O)N[C@@H](Cc1ccccc1)[C@@H](O)C[C@H](Cc1ccccc1)NC(=O)[C@H](C(C)C)N1CCCNC1=O` [Lopinavir], the “recipient cells with Tau-FRagg upon coculture with donors” value in the assay on HEK Tau-FRsol cells [1] is “significant reduction of recipient cells with aggregates; also recorded: reduces intercellular Tau aggregate spreading; also recorded: reduces intercellular protein aggregate spreading”. Further, the “Tau aggregate inducing activity of donor-derived EV in recipients” value in the assay on HEK Tau-FRsol cells [2] is reported as “reduced Tau aggregate inducing activity in recipients”. The “inhibition of HERV-K protease required for HERV protein maturation” value on HERV-K protease is given as “inhibit HERV-K protease”.

Regarding `COC(=O)N[C@H](C(=O)N[C@@H](Cc1ccccc1)[C@@H](O)CN(Cc1ccc(-c2ccccn2)cc1)NC(=O)[C@@H](NC(=O)OC)C(C)(C)C)C(C)(C)C` [atazanavir], the “percentage of recipient cells with NM-GFP aggregates” value in the assay with N2a NM-GFP^sol cells (vs DMSO) is given as “reduced the percentage of recipient cells with NM-GFP aggregates”; in the assay with N2a NM-GFP^sol cells (vs DMSO, listed as Atazenavir), “reduce aggregate induction”.
